Measured values taken from US20250136722A1, “CYTOTOXICITY TARGETING CHIMERAS” (GLAXOSMITHKLINE INTELLECTUAL PROPERTY DEVELOPMENT LIMITED, priority 2021, published 2025).
Counter-ions that a name gives are not always drawn.

Molecular target: T1, CHOK1 cells engineered to overexpress human CCR2 (Homo sapiens, UniProt P41597)
T1 construct: expressed in transfected cells; host or cells: CHOK1 cells
Assay: Antibody dependent cellular cytotoxicity (ADCC) reporter assay (Example 199)
Format: cell-based
Settings: with anti-cotinine antibody SEQ ID NO: 11/12; CHOK1-human CCR2 target cells, Jurkat FcγRIIIa NFAT-luciferase reporter cells; 12-18 hours; read-out: ADCC Reporter Assay pEC50 (converted)
Method: An antibody dependent cellular cytoxicity reporter assay was conducted using the following four assay components: (i) ARM compound of Formula (I) targeting CCR2 (concentrations ranging from 1 pM to 10 μM) (ii) anti-cotinine antibody having a heavy chain sequence of SEQ ID NO: 11 and a light chain sequence of SEQ ID NO: 12 (rabbit variable region with human IgG1 Fc domain containing a DE mutation (S239D/1332E)) (concentrations ranging from 0.01 μg/mL to 200 μg/mL); (iii) target cells: CHOK1 cells engineered to overexpress either human CCR2 (typically 1000-20,000 cells per well) and (iv) reporter cells: Jurkat cells engineered to express FcγRIIIa with the reporter gene luciferase under the control of the NFAT promoter (typically 3000-75,000 cells per well). Reagents were combined in a final volume of 20 μL in a 384-well tissue culture treated plate. All four assay components were incubated together for about 12-18 hours. Thereafter, BioGlo Detection reagent (Promega) was added to the wells to lyse the cells and provide a substrate for the luciferase reporter protein. Luminescence signal was measured on a microplate reader and signal:background was calculated by dividing the signal of a test well by the signal obtained when no heterobivalent compound of Formula (I) was added. EC50 calculations were done using Graphpad Prism Software, specifically a nonlinear regression curve fit (Y=Bottom+(Top−Bottom)/(1+10^((Log EC50−X)*HillSlope))).
ARMs compounds of Formula (I) of the invention were tested for ADCC activity in the above assay in or more experimental runs and the results are shown in Table 3 below. Potency of the compounds of Formula (I) of the invention is reported as a pEC50 value. The pEC50 value is the negative log of the EC50 value, wherein the EC50 value is the half maximal effective concentration measured in molar (M). For compounds tested in more than one experimental run, the pEC50 value is reported as an average.

First: CC(C)N(C)[C@@H]1CC[C@H](N2CC[C@H](Nc3ncnc4ccc(C(F)(F)F)cc34)C2=O)[C@H](NC(=O)[C@H]2CC[C@H](N3CCC(C(=O)NCCOCCOCCNC(=O)[C@H]4CC(=O)N(C)[C@@H]4c4cccnc4)CC3)CC2)C1 [Example 135]
Second: CC(C)N(C)[C@@H]1CC[C@H](N2CC[C@H](Nc3ncnc4ccc(C(F)(F)F)cc34)C2=O)[C@H](NC(=O)CNC(=O)[C@H]2CC[C@@H](NC(=O)COCCOCCNC(=O)[C@H]3CC(=O)N(C)[C@@H]3c3cccnc3)CC2)C1 [Example 136, (2S,3S)-N-(2-(2-(2-(((1S,4R)-4-((2-(((1R,2S,5R)-5-(Isopropyl(methyl)amino)-2-((S)-2-oxo-3-((6-(trifluoromethyl)quinazolin-4-yl)amino)pyrrolidin-1-yl)cyclohexyl)amino)-2-oxoethyl)carbamoyl)cyclohexyl)amino)-2-oxoethoxy)ethoxy)ethyl)-1-methyl-5-oxo-2-(pyridin-3-yl)pyrrolidine-3-carboxamide]
The EC50 of the first is 2-fold lower: 2.51 nM for the first, 4.91 nM for the second.

First: CC(C)N(C)[C@@H]1CC[C@H](N2CC[C@H](Nc3ncnc4ccc(C(F)(F)F)cc34)C2=O)[C@H](NC(=O)[C@H]2CC[C@H](c3ccc(C(=O)NCCOCCOCCNC(=O)[C@H]4CC(=O)N(C)[C@@H]4c4cccnc4)cn3)CC2)C1 [Example 139, 6-((1R,4r)-4-(((1R,2S,5R)-5-(Isopropyl(methyl)amino)-2-((S)-2-oxo-3-((6-(trifluoromethyl)quinazolin-4-yl)amino)pyrrolidin-1-yl)cyclohexyl)carbamoyl)cyclohexyl)-N-(2-(2-(2-((2S,3S)-1-methyl-5-oxo-2-(pyridin-3-yl)pyrrolidine-3-carboxamido)ethoxy)ethoxy)ethyl)nicotinamide]
Second: CC(C)N(C)[C@@H]1CC[C@H](N2CC[C@H](Nc3ncnc4ccc(C(F)(F)F)cc34)C2=O)[C@H](NC(=O)[C@H]2CC[C@H](c3ccc(C(=O)NCCOCCOCCNC(=O)[C@H]4CC(=O)N(C)[C@@H]4c4cccnc4)nc3)CC2)C1 [Example 141]
The EC50 of the first is 2-fold higher: 3.98 nM for the first, 2 nM for the second.

Compared with CC(C)N(C)[C@@H]1CC[C@H](N2CC[C@H](Nc3ncnc4ccc(C(F)(F)F)cc34)C2=O)[C@H](NC(=O)C2CCN(CCCCCCCCNC(=O)[C@H]3CC(=O)N(C)[C@@H]3c3cccnc3)CC2)C1 [Example 144, N-((1R,2S,5R)-5-(Isopropyl(methyl)amino)-2-((S)-2-oxo-3-((6-(trifluoromethyl)quinazolin-4-yl)amino)pyrrolidin-1-yl)cyclohexyl)-1-(8-((2S,3S)-1-methyl-5-oxo-2-(pyridin-3-yl)pyrrolidine-3-carboxamido)octyl)piperidine-4-carboxamide, 3Formic acid salt], CC(C)N(C)[C@@H]1CC[C@H](N2CC[C@H](Nc3ncnc4ccc(C(F)(F)F)cc34)C2=O)[C@H](NC(=O)[C@H]2CC[C@@H](N3CCN(CCCCCCCCNC(=O)[C@H]4CC(=O)N(C)[C@@H]4c4cccnc4)CC3)CC2)C1 [Example 145] is 2-fold lower in EC50: 3.16 nM for the first, 1.58 nM for the second.

First: CC(C)N(C)[C@@H]1CC[C@H](N2CC[C@H](Nc3ncnc4ccc(C(F)(F)F)cc34)C2=O)[C@H](NC(=O)[C@H]2CC[C@H](N3CCN(CCCCCCCCNC(=O)[C@H]4CC(=O)N(C)[C@@H]4c4cccnc4)CC3)CC2)C1 [Example 146]
Second: CC(C)N(C)[C@@H]1CC[C@H](N2CC[C@H](Nc3ncnc4ccc(C(F)(F)F)cc34)C2=O)[C@H](NC(=O)[C@H]2CC[C@H](N3CCN(C(=O)CCCCCCCCNC(=O)[C@H]4CC(=O)N(C)[C@@H]4c4cccnc4)CC3)CC2)C1 [Example 155]
The EC50 of the first is 6.3-fold lower: 0.251 nM for the first, 1.58 nM for the second.

First: CC(C)N(C)[C@@H]1CC[C@H](N2CC[C@H](Nc3ncnc4ccc(C(F)(F)F)cc34)C2=O)[C@H](NC(=O)C2CCN(CCOCCOCCOCCOCCNC(=O)[C@H]3CC(=O)N(C)[C@@H]3c3cccnc3)CC2)C1 [Example 147]
Second: CC(C)N(C)[C@@H]1CC[C@H](N2CC[C@H](Nc3ncnc4ccc(C(F)(F)F)cc34)C2=O)[C@H](NC(=O)c2ccnc(CCCOCCOCCOCCOCCNC(=O)[C@H]3CC(=O)N(C)[C@@H]3c3cccnc3)c2)C1 [Example 160, N-((1R,2S,5R)-5-(Isopropyl(methyl)amino)-2-((S)-2-oxo-3-((6-(trifluoromethyl)quinazolin-4-yl)amino)pyrrolidin-1-yl)cyclohexyl)-2-(1-((2S,3S)-1-methyl-5-oxo-2-(pyridin-3-yl)pyrrolidin-3-yl)-1-oxo-5,8,11,14-tetraoxa-2-azaheptadecan-17-yl)isonicotinamide, 3Formic acid salt]
The EC50 of the first is 1.6-fold lower: 1.26 nM for the first, 2 nM for the second.

First: CC(C)N(C)[C@@H]1CC[C@H](N2CC[C@H](Nc3ncnc4ccc(C(F)(F)F)cc34)C2=O)[C@H](NC(=O)[C@H]2CC[C@@H](C(=O)NCCCN3CCN(CCCNC(=O)[C@H]4CC(=O)N(C)[C@@H]4c4cccnc4)CC3)CC2)C1 [Example 150, (1 s,4S)-N^1-((1R,2S,5R)-5-(Isopropyl(methyl)amino)-2-((S)-2-oxo-3-((6-(trifluoromethyl)quinazolin-4-yl)amino)pyrrolidin-1-yl)cyclohexyl)-N^4-(3-(4-(3-((2S,3S)-1-methyl-5-oxo-2-(pyridin-3-yl)pyrrolidine-3-carboxamido)propyl)piperazin-1-yl)propyl)cyclohexane-1,4-dicarboxamide]
Second: CC(C)N(C)[C@@H]1CC[C@H](N2CC[C@H](Nc3ncnc4ccc(C(F)(F)F)cc34)C2=O)[C@H](NC(=O)c2cnn(C3CCN(C(=O)CCCCCCCCCCNC(=O)[C@H]4CC(=O)N(C)[C@@H]4c4cccnc4)CC3)c2)C1 [Example 156]
The EC50 of the first is 4-fold higher: 3.16 nM for the first, 0.794 nM for the second.

CC(C)N(C)[C@@H]1CC[C@H](N2CC[C@H](Nc3ncnc4ccc(C(F)(F)F)cc34)C2=O)[C@H](NC(=O)COCCCCCCCCCOCCCCCCCNC(=O)[C@H]2CC(=O)N(C)[C@@H]2c2cccnc2)C1 [Example 153, (2S,3S)-N-(7-((9-(2-(((1R,2S,5R)-5-(Isopropyl(methyl)amino)-2-((S)-2-oxo-3-((6-(trifluoromethyl)quinazolin-4-yl)amino)pyrrolidin-1-yl)cyclohexyl)amino)-2-oxoethoxy)nonyl)oxy)heptyl)-1-methyl-5-oxo-2-(pyridin-3-yl)pyrrolidine-3-carboxamide] and CC(C)N(C)[C@@H]1CC[C@H](N2CC[C@H](Nc3ncnc4ccc(C(F)(F)F)cc34)C2=O)[C@H](NC(=O)CCCCCCCCC(=O)NCCOCCOCCNC(=O)[C@H]2CC(=O)N(C)[C@@H]2c2cccnc2)C1 [Example 159, N^1-((1R,2S,5R)-5-(isopropyl(methyl)amino)-2-((S)-2-oxo-3-((6-(trifluoromethyl)quinazolin-4-yl)amino)pyrrolidin-1-yl)cyclohexyl)-N^10-(2-(2-(2-((2S,3S)-1-methyl-5-oxo-2-(pyridin-3-yl)pyrrolidine-3-carboxamido)ethoxy)ethoxy)ethyl)decanediamide] are within 1.5-fold of each other in EC50: 2.51 nM for the first, 2 nM for the second.

CC(C)N(C)[C@@H]1CC[C@H](N2CC[C@H](Nc3ncnc4ccc(C(F)(F)F)cc34)C2=O)[C@H](NC(=O)C2CC=C(c3ccc(OCCCCCCNC(=O)[C@H]4CC(=O)N(C)[C@@H]4c4cccnc4)cc3)CC2)C1 (stereo partly drawn) [Example 158, (2S,3S)-N-(6-((4′-(((1R,2S,5R)-5-(Isopropyl(methyl)amino)-2-((S)-2-oxo-3-((6-(trifluoromethyl)quinazolin-4-yl)amino)pyrrolidin-1-yl)cyclohexyl)carbamoyl)-2′,3′,4′,5′-tetrahydro-[1,1′-biphenyl]-4-yl)oxy)hexyl)-1-methyl-5-oxo-2-(pyridin-3-yl)pyrrolidine-3-carboxamide] gave an EC50 of 2.51 nM.
